Assay [1] deals with ROS 17/2.8 osteoblast-like cells. Briefly: CK specific activity in ROS 17/2.8 osteoblast-like cells. The assay is classed as cell-based, rat.
Assay [2] has the same test system. Put plainly: DNA synthesis in ROS 17/2.8 osteoblast-like cells. The assay is classed as cell-based, rat.
Assay [3] has the same test system. Briefly: Cyclic AMP production in ROS 17/2.8 osteoblast-like cells. It counts as cell-based, rat. Here is the method:
When cultures of the widely used model for osteoblasts, the osteoblast-likeclone of rat osteosarcoma, ROS 17/2.8 (Endocrinology (Baltimore), 107 (1980) 1494-1503=12; Majeska et al.), were incubated with full-length PTH and PTH fragments (Table 4), cyclic AMP production was stimulated only by bPTH(1-84) and hPTH(1-34), whereas hPTH(25-39), hPTH(27-48), hPTH(28-48) and hPTH(34-47) were ineffective.

Assay [4] concerns chondrocytes from sterna of 16-day-old embryonic chicks. Put plainly: Stimulation of DNA synthesis in chondrocytes by PTH fragments (Table 1). The assay is classed as cell-based, chick. Particulars: for [^3 H]thymidine incorporation: 4 h; for E/C: stimulated / non-induced control cells. Here is the method:
Chondrocytes were isolated from sterna of 16-day-old embryonic chicks according to J. Biol. Chem., 261 (1986) 7997-8001 (10; Yasui et al.) with some modifications. Collagenase was dissolved in Hanks' balanced salt solution (0.4 mM Na2 HPO4, 140 mN NaCl, 5.3 mM KCl, 0.4 mM MgSO4, 1.3 mM CaCl2, 0.4 mM KH2 PO4, 0.5 mM MglC2, 5 mM glucose, 0.05% gentamicin) at a concentration of 286 units/ml. Sterna were treated repeatedly for 30 min with collagenase solution at 37° C. Cells first released by this procedure were discarded because of their very poor responsiveness towards PTH. The collagenase treatment was subsequently repeated leading to a highly homogenous cell population of chondrocytes. The cells obtained by a second collagenase treatment were collected by centrifugation (1000 rpm, 10 min), washed twice with medium (Dulbecco's modified Eagle's medium, GIBCO, supplemented with NaHCO3 (45 mM), glutamine (2 mM), penicillin G/streptomycin (65 mg/1 and 100 mg/l, respectively), Hepes (10 mM, pH 7.2), and FCS (10% v/v) and counted.
The DNA synthesis rate was assayed in monolayer culture by the incorporation of ]^3 H]thymidine into perchloric acid-precipitable material. […] After 17 h, the medium was replaced by 200 μl of serum-free medium. After 4 days, chondrocytes were incubated for 4 h with the appropriate effector and 1μ Ci of [^3 H]thymidine. Subsequently, medium was removed and the cells were washed twice with 200 μl of phosphate-buffered saline (PBS: 137 mM NaCl, 2.7 mN KCl, 1.5 mM KH2 PO4, 0.8 mN Na2 HPO4, pH 7.0). Then cells were lysed by 100 μl of 2% (v/v) Nonidet P- 40 and 2% (w/v) sodium dodecyl sulfate treatment and the perchloric acid-insoluble material was precipitated by adding an equal volume of ice-cold 2% (w/v) perchloric acid in the presence of 1% herring sperm DNA as carrier. After storage for 10 min at -20° C., the precipitated material of each well was transferred to glass fiber filters with a Scatron--As semiautomatic cell harvester. Filters were dried at 80° C. for 20 min, transferred into scintillation vials, and 2 ml of scintillation mixture (scintillator 299; United Technology Pachard) were added. Radioactivity of the samples was determined with a β counter (Minimax; United Technology Pachard). Each test consisted of 5 up to 10 identically treated wells and was repeated at least twice with freshly prepared chondrocytes.
The incorporation of [^3 H]thymidine by non-induced control cells and by stimulated cells is shown by C and E, respectively. The results shown mean ±S.E. for n parallel cell cultures.

Assay [5] has as its system osteoblast enriched rat embryo calvaria cell cultures. Put plainly: CK specific activity in rat embryo calvaria cell cultures. It counts as cell-based. Particulars: for increase of CK activity (in words): treated for 24 h; for CK specific activity, effect of fragment (experimental value/control value): 100 nM, 24 h, control 457 ± 46 nmol/min per mg of protein. Here is the method:
(§1) FIG. 10 is a graphical representation showing the dose dependent stimulation by bPTH (1-84) of osteoblast enriched rat embryo calvaria cell cultures. Experimental details for the determination of cyclic AMP (.quadrature.) (15 min after stimulation) and incorporation of [^3 H]thymidine into DNA ( ) and CK ( ) specific activity (24 h after stimulation) are given below. The results are means ±S.E.M., N≥5. In several cases the S.E.M. was less than the size of the symbol. Control values were: cyclic AMP, 25±5 pmol/mg of protein; DNA, 240±30 c.p.m./μg of DNA; CK, 200±20 nmol/min per mg of protein. Statistical significance of differences between treated and corresponding control groups by Student's T test: *P<0.05; **P<0.01.
(§2) Rat calvaria cultures were treated with fragments of PTH derived from the central portion of the molecule.

Assay [6] has the same test system. Put plainly: DNA synthesis ([3H]thymidine incorporation) in rat embryo calvaria cell cultures. The assay is classed as cell-based. Conditions: 100 nM; 24 h; control 624 ± 73 c.p.m./μg of DNA. Here is the method:
as §1
A general note: Dividing cells build labelled thymidine or BrdU into new DNA.

For assay [7] the test system is unchanged. Briefly: Cyclic AMP production in rat embryo calvaria cell cultures. Conditions: 100 nM; 15 min; control 29 ± 2.9 pmol/mg of protein. It counts as cell-based. As for the experimental part: as §1, §2

Regarding “hPTH(24-47): PTH fragment 24-47 as printed; probably a misprint of hPTH(34-47) (LRKKLQDVHNFVALGAPLAPRDAG; Parathyroid hormone; UniProt P01270 55-78, looked up, fragment)”, in assay [1], the “stimulation of CK activity (in words)” value was “stimulated by all of the cell fragments tested except”. Besides, the “stimulation of DNA synthesis (in words)” value in assay [2] was “stimulated by all of the cell fragments tested except”.
With “hPTH(27-48): PTH fragment 27-48 as printed; probably a misprint of hPTH(28-47) (KLQDVHNFVALGAPLAPRDAGS; Parathyroid hormone; UniProt P01270 58-79, looked up, fragment)”, the “stimulation of cyclic AMP production (in words)” value in assay [3] is reported as “ineffective”.
For “hPTH(31-47): PTH fragment 31-47, human source; comparative example (VHNFVALGAPLAPRDAG; Parathyroid hormone; UniProt P01270 62-78, looked up, fragment) [reference compound]”, the “[^3 H]thymidine incorporation” value was found to be 176 ± 8 cpm in assay [4] (5.3 × 10^-5 mol/l, control 139 ± 6); 178 ± 35 cpm in assay [4] (5.3 × 10^-6 mol/l, control 139 ± 6); 178 ± 24 cpm in assay [4] (5.3 × 10^-7 mol/l, control 139 ± 6); 165 ± 20 cpm in assay [4] (5.3 × 10^-8 mol/l, control 139 ± 6). For the same substance, the E/C in assay [4] (5.3 × 10^-5 mol/l) is 1.27; in assay [4] (5.3 × 10^-6 mol/l) it was 1.28; in assay [4] (5.3 × 10^-7 mol/l) it was 1.28; in assay [4] (5.3 × 10^-8 mol/l), 1.19. In addition, the “increase of CK activity (in words)” value in assay [5] was “inactive”.
Turning to “hPTH(29-47): PTH fragment 29-47, human source (QDVHNFVALGAPLAPRDAG; Parathyroid hormone; UniProt P01270 60-78, looked up, fragment)”, the “[^3 H]thymidine incorporation” value in assay [4] (4.8 × 10^-5 mol/l, control 139 ± 6) is 273 ± 30 cpm; in assay [4] (4.8 × 10^-6 mol/l, control 139 ± 6), 225 ± 20 cpm; in assay [4] (4.8 × 10^-7 mol/l, control 139 ± 6) it was 273 ± 33 cpm; in assay [4] (4.8 × 10^-8 mol/l, control 139 ± 6), 138 ± 15 cpm. Also, the E/C in assay [4] (4.8 × 10^-5 mol/l) was 1.96; in assay [4] (4.8 × 10^-6 mol/l) it was 1.62; in assay [4] (4.8 × 10^-7 mol/l), 1.96; in assay [4] (4.8 × 10^-8 mol/l), 0.99. In assay [5], the “CK specific activity, effect of fragment (experimental value/control value)” value came out at 1.67 ± 0.13. Besides, in assay [5], the “increase of CK activity (in words)” value is “stimulatory but to a lesser degree”. Further, the “[3H)Thymidine incorporation, effect of fragment (experimental value/control value)” value in assay [6] is recorded as 1.96 ± 0.14. In addition, in assay [7], the “Cyclic AMP concentration, effect of fragment (experimental value/control value)” value is reported as 0.57 ± 0.47.
Regarding “hPTH(30-47): PTH fragment 30-47, human source; comparative example (DVHNFVALGAPLAPRDAG; Parathyroid hormone; UniProt P01270 61-78, looked up, fragment) [reference compound]”, the “[^3 H]thymidine incorporation” value in assay [4] (5.1 × 10^-5 mol/l, control 139 ± 6) amounted to 248 ± 31 cpm; in assay [4] (5.1 × 10^-6 mol/l, control 139 ± 6), 193 ± 20 cpm; in assay [4] (5.1 × 10^-7 mol/l, control 139 ± 6) it was 222 ± 19 cpm; in assay [4] (5.1 × 10^-8 mol/l, control 139 ± 6), 169 ± 23 cpm. The E/C in assay [4] (5.1 × 10^-5 mol/l) came out at 1.78; in assay [4] (5.1 × 10^-6 mol/l) it was 1.39; in assay [4] (5.1 × 10^-7 mol/l), 1.60; in assay [4] (5.1 × 10^-8 mol/l), 1.22. In addition, the “CK specific activity, effect of fragment (experimental value/control value)” value in assay [5] is reported as 1.27 ± 0.03. Moreover, the “increase of CK activity (in words)” value in assay [5] is on record as “slightly stimulatory”. Further, the “[3H)Thymidine incorporation, effect of fragment (experimental value/control value)” value in assay [6] is reported as 1.86 ± 0.18. In assay [7], the “Cyclic AMP concentration, effect of fragment (experimental value/control value)” value was 1.00 ± 0.22.
Regarding “hPTH(32-47): PTH fragment 32-47 as printed; at this place probably a misprint of hPTH(28-47) (HNFVALGAPLAPRDAG; Parathyroid hormone; UniProt P01270 63-78, looked up, fragment)”, the “increase of CK activity (in words)” value in assay [5] is recorded as “maximally active”.
Still for that read-out and setting: the same measure for “hPTH(29-39): PTH fragment 29-39 as printed; probably a misprint of hPTH(25-39) (QDVHNFVALGA; Parathyroid hormone; UniProt P01270 60-70, looked up, fragment)”: “maximally active”.
On to “hPTH(28-39): PTH fragment 28-39, human source (LQDVHNFVALGA; Parathyroid hormone; UniProt P01270 59-70, looked up, fragment)”, for which the “[^3 H]thymidine incorporation” value in assay [4] (7.6 × 10^-4 mol/l, control 324 ± 18) was determined as 387 ± 41 cpm; in assay [4] (7.6 × 10^-5 mol/l, control 324 ± 18), 399 ± 47 cpm; in assay [4] (7.6 × 10^-6 mol/l, control 324 ± 18), 324 ± 45 cpm; in assay [4] (7.6 × 10^-7 mol/l, control 324 ± 18), 473 ± 74 cpm; in assay [4] (7.6 × 10^-8 mol/l, control 324 ± 18), 319 ± 39 cpm. For the same substance, the E/C stood at 1.19 in assay [4] (7.6 × 10^-4 mol/l); 1.23 in assay [4] (7.6 × 10^-5 mol/l); 1.00 in assay [4] (7.6 × 10^-6 mol/l); 1.46 in assay [4] (7.6 × 10^-7 mol/l); 0.97 in assay [4] (7.6 × 10^-8 mol/l).
For “hPTH(33-47): PTH fragment 33-47, human source; inactive fragment (NFVALGAPLAPRDAG; Parathyroid hormone; UniProt P01270 64-78, looked up, fragment) [reference compound]”, the “increase of CK activity (in words)” value in assay [5] was “inactive”.

Values taken from patent US5457092A, “Methods of promoting bone growth in mammals comprising administration of modified parathyroid hormone” (Gesellschaft fur Biotechnologische Forschung mbH (GBF), priority 1987, dated 1995).
